Results reported in patent US12077503B2, “Substituted cyclic amides and their use as herbicides” (FMC CORPORATION, priority 2015, dated 2024).

Legend:
Type in all cases: in vivo
[1] = test system: ducksalad (Heteranthera limosa); assay: Test B flooded paddy test; details: Flood, 0 to 100 scale where 0 is no effect and 100 is complete control, 13 to 15 d
Method in brief: (§1)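 Compound goes directly into floodwater once pots are flooded 3 cm above soil, targeting plants at two leaves; the water depth is then held for the test duration. Plants sit 13–15 d in a greenhouse and are rated visually, 100 denoting complete control.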

[2] = test system: rice (Oryra sativa); assay: Test B flooded paddy test; details: Flood, 0 to 100 scale where 0 is no effect and 100 is complete control, 13 to 15 d
Method in brief: as §1

[3] = test system: sedge, umbrella (small-flower umbrella sedge, Cyperus difformis); assay: Test B flooded paddy test; details: Flood, 0 to 100 scale where 0 is no effect and 100 is complete control, 13 to 15 d
Method in brief: as §1

[4] = test system: barnyardgrass (Echinochloa crus-galli); assay: Test B flooded paddy test; details: Flood, 0 to 100 scale where 0 is no effect and 100 is complete control, 13 to 15 d
Method in brief: as §1

[5] = test system: ragweed (common ragweed, Ambrosia elatior); assay: Test A preemergence
Method in brief: (§2)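 Treatment is preemergence as a directed soil spray after planting, or postemergence at the one- to two-leaf stage, with test chemical in a non-phytotoxic solvent mixture plus surfactant. Plants stay in the greenhouse about 10 d before visual injury scoring on a 0 to 100 scale versus untreated controls.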

[6] = test system: Kochia (Kochia scoparia); assay: Test A preemergence
Method in brief: as §2

[7] = test system: ryegrass, Italian (Italian ryegrass, Lolium multiflorum); assay: Test A preemergence
Method in brief: as §2

[8] = test system: barnyardgrass (Echinochloa crus-galli); assay: Test A preemergence
Method in brief: as §2

[9] = test system: giant foxtail (Setaria faberii); assay: Test A preemergence
Method in brief: as §2

[10] = test system: pigweed (Amaranthus retroflexus); assay: Test A preemergence
[11] = test system: ragweed (common ragweed, Ambrosia elatior); assay: Test A postemergence
Method in brief: as §2

[12] = test system: Kochia (Kochia scoparia); assay: Test A postemergence
Method in brief: as §2

[13] = test system: ryegrass, Italian (Italian ryegrass, Lolium multiflorum); assay: Test A postemergence
Method in brief: as §2

[14] = test system: blackgrass (Alopecurus myosuroides); assay: Test A postemergence
Method in brief: as §2

[15] = test system: corn (Zea mays); assay: Test A postemergence
Method in brief: as §2

[16] = test system: barnyardgrass (Echinochloa crus-galli); assay: Test A postemergence
Method in brief: as §2

[17] = test system: giant foxtail (Setaria faberii); assay: Test A postemergence
Method in brief: as §2

[18] = test system: wheat (Triticum aestivum); assay: Test A postemergence
Method in brief: as §2

[19] = test system: Galium (catchweed bedstraw, Galium aparine); assay: Test A postemergence
Method in brief: as §2

[20] = test system: pigweed (Amaranthus retroflexus); assay: Test A postemergence
Method in brief: as §2

[21] = 125 g ai/ha, Preemergence, visual injury after approximately 10 d, 0 to 100 scale where 0 is no effect and 100 is complete control
[22] = Preemergence, 500 g ai/ha, visual injury approx. 10 d
[23] = 125 g ai/ha, postemergence, visual rating after approx. 10 d, 0 to 100 scale (0 no effect, 100 complete control)
[24] = Postemergence, 500 g ai/ha, 0 to 100 scale where 0 is no effect and 100 is complete control
[25] = 500 g ai/ha, preemergence, 0 to 100 scale, 0 = no effect, 100 = complete control
[26] = 500 g ai/ha, postemergence, visual injury, 0 to 100 scale (0 no effect, 100 complete control), approx. 10 d

SMILES	Plant response rating, Ducksalad ([1]; 250 g ai/ha)	Plant response rating, Rice ([2]; 250 g ai/ha)	Plant response rating, Sedge, Umbrella ([3]; 250 g ai/ha)	Plant response rating, Barnyardgrass ([4]; 250 g ai/ha)	Plant response rating, Ragweed [5, 21]	Plant response rating, Kochia [6, 21]	Plant response rating, Ryegrass, Italian [7, 21]	Plant response rating, Barnyardgrass [8, 21]	Plant response rating, Foxtail, Giant [9, 21]	Plant response rating, Pigweed [10, 21]	Plant response rating, Ragweed [11, 23]	Plant response rating, Kochia [12, 23]	Plant response rating, Ryegrass, Italian [13, 23]	Plant response rating, Blackgrass [14, 23]	Plant response rating, Corn [15, 23]	Plant response rating, Barnyardgrass [16, 23]	Plant response rating, Foxtail, Giant [17, 23]	Plant response rating, Wheat [18, 23]	Plant response rating, Galium [19, 23]	Plant response rating, Pigweed [20, 23]	also measured
O=C1NCC(c2cc(F)c(F)cc2F)C1C(=O)Nc1ccc(F)cc1F (racemic) [Compound 551]	85	15	0	20	0	0	0	30	80	0	0	0	0	0	0	10	50	0	0	0	Ragweed plant response rating (0 to 100 scale, 0 is no effect, 100 is complete control) [5, 22]: 0; Kochia plant response rating (0 to 100 scale, 0 is no effect, 100 is complete control) [6, 22]: 0; Ryegrass, Italian plant response rating (0 to 100 scale, 0 is no effect, 100 is complete control) [7, 22]: 0; Barnyardgrass plant response rating (0 to 100 scale, 0 is no effect, 100 is complete control) [8, 22]: 90; Foxtail, Giant plant response rating (0 to 100 scale, 0 is no effect, 100 is complete control) [9, 22]: 90; Pigweed plant response rating (0 to 100 scale, 0 is no effect, 100 is complete control) [10, 22]: 0; Plant response rating, Ragweed [11, 24]: 0; Plant response rating, Kochia [12, 24]: 0; Plant response rating, Ryegrass, Italian [13, 24]: 0; Plant response rating, Blackgrass [14, 24]: 0; Plant response rating, Corn [15, 24]: 0; Plant response rating, Barnyardgrass [16, 24]: 80; Plant response rating, Foxtail, Giant [17, 24]: 80; Plant response rating, Wheat [18, 24]: 0; Plant response rating, Galium [19, 24]: 0; Plant response rating, Pigweed [20, 24]: 0
COc1cccc(NC(=O)C2C(=O)NCC2c2cccc(C(F)(F)F)c2)c1F (racemic) [Compound 674]					0	0	0	60	70	0	0	0	0	0	0	30	30	0	0	0	Plant response rating, Ducksalad ([1]; 500 g ai/ha): 65; Plant response rating, Rice ([2]; 500 g ai/ha): 20; Plant response rating, Sedge, Umbrella ([3]; 500 g ai/ha): 0; Plant response rating, Barnyardgrass ([4]; 500 g ai/ha): 60; Plant response rating, Ragweed [5, 25]: 0; Plant response rating, Kochia [6, 25]: 30; Plant response rating, Ryegrass, Italian [7, 25]: 0; Plant response rating, Barnyardgrass [8, 25]: 80; Plant response rating, Foxtail, Giant [9, 25]: 90; Plant response rating, Pigweed [10, 25]: 0; Plant response rating, Ragweed [11, 26]: 0; Plant response rating, Kochia [12, 26]: 0; Plant response rating, Ryegrass, Italian [13, 26]: 0; Plant response rating, Blackgrass [14, 26]: 0; Plant response rating, Corn [15, 26]: 0; Plant response rating, Barnyardgrass [16, 26]: 70; Plant response rating, Foxtail, Giant [17, 26]: 80; Plant response rating, Wheat [18, 26]: 0; Plant response rating, Galium [19, 26]: 0; Plant response rating, Pigweed [20, 26]: 0
Cc1ccc(C2CNC(=O)C2C(=O)Nc2ccccc2F)cc1C(F)(F)F (racemic) [Compound 678]	75	10	0	40	0	0	0	90	80	0	0	0	0	30	10	70	20	0	0	0	Plant response rating, Ragweed [5, 25]: 0; Plant response rating, Kochia [6, 25]: 30; Plant response rating, Ryegrass, Italian [7, 25]: 20; Plant response rating, Barnyardgrass [8, 25]: 90; Plant response rating, Foxtail, Giant [9, 25]: 90; Plant response rating, Pigweed [10, 25]: 0; Plant response rating, Ragweed [11, 26]: 0; Plant response rating, Kochia [12, 26]: 0; Plant response rating, Ryegrass, Italian [13, 26]: 20; Plant response rating, Blackgrass [14, 26]: 60; Plant response rating, Corn [15, 26]: 30; Plant response rating, Barnyardgrass [16, 26]: 80; Plant response rating, Foxtail, Giant [17, 26]: 60; Plant response rating, Wheat [18, 26]: 20; Plant response rating, Galium [19, 26]: 30; Plant response rating, Pigweed [20, 26]: 0
Cc1ccc(C2CNC(=O)C2C(=O)Nc2cccc(F)c2F)cc1C(F)(F)F (racemic) [Compound 679]	55	0	0	30	0	30	20	80	90	0	0	0	0	30	20	40	0	0	40	0	Plant response rating, Ragweed [5, 25]: 30; Plant response rating, Kochia [6, 25]: 60; Plant response rating, Ryegrass, Italian [7, 25]: 30; Plant response rating, Barnyardgrass [8, 25]: 90; Plant response rating, Foxtail, Giant [9, 25]: 90; Plant response rating, Pigweed [10, 25]: 40; Plant response rating, Ragweed [11, 26]: 20; Plant response rating, Kochia [12, 26]: 0; Plant response rating, Ryegrass, Italian [13, 26]: 20; Plant response rating, Blackgrass [14, 26]: 60; Plant response rating, Corn [15, 26]: 50; Plant response rating, Barnyardgrass [16, 26]: 70; Plant response rating, Foxtail, Giant [17, 26]: 30; Plant response rating, Wheat [18, 26]: 20; Plant response rating, Galium [19, 26]: 60; Plant response rating, Pigweed [20, 26]: 40
Cc1ccc(C2CNC(=O)C2C(=O)Nc2ccc(F)c(F)c2F)cc1C(F)(F)F (racemic) [Compound 681]	25	0	0	35	0	20	0	70	90	0	0	0	0	0	0	40	0	0	30	0	Plant response rating, Ragweed [5, 25]: 0; Plant response rating, Kochia [6, 25]: 60; Plant response rating, Ryegrass, Italian [7, 25]: 30; Plant response rating, Barnyardgrass [8, 25]: 80; Plant response rating, Foxtail, Giant [9, 25]: 90; Plant response rating, Pigweed [10, 25]: 30; Plant response rating, Ragweed [11, 26]: 0; Plant response rating, Kochia [12, 26]: 40; Plant response rating, Ryegrass, Italian [13, 26]: 20; Plant response rating, Blackgrass [14, 26]: 30; Plant response rating, Corn [15, 26]: 30; Plant response rating, Barnyardgrass [16, 26]: 90; Plant response rating, Foxtail, Giant [17, 26]: 30; Plant response rating, Wheat [18, 26]: 0; Plant response rating, Galium [19, 26]: 50; Plant response rating, Pigweed [20, 26]: 0
